Laboratory results: patent US20030044974A1, “Method for collecting cells in M phase or G1 phase and method for nuclear transplantation using the cells” (priority 2001, published 2003)
Marks after values point to notes of the source that are not given here.

How the values were obtained:
bovine fibroblast cells [1] = assay: Combination of metaphase-synchronizing agent and shaking treatment: cell cycles of cells recovered from culture supernatant (Comparative Example 2); format: cell-based
Method: Fibroblast Cells and Observation Thereof Fetal fibroblast cells were recovered by collecting the medium containing the cells in a 15 ml test tube and by centrifuging the medium (180g, 5 minutes). After the centrifugation, the cell precipitate was resuspended with a small amount of the medium, and the resulting cell suspension was uniformly smeared on a slide glass. The slide glass was air-dried at room temperature and the cells were fixed (99.9% ethanol, 5 minutes) to prepare preparations.
Thirty minutes later, the whole culture supernatant was recovered after subjecting the petri dish to shaking treatment, or without the shaking treatment. The shaking treatment was carried out by intimately attaching the bottom plate of the plastic petri dish to a mixer (IKEDA RIKA, D-10) and driving the mixer to circularly move the petri dish for 1 minute (3000 rpm, diameter of circular movement: 0.3 cm). […] The cell pellet was resuspended in a small amount of the medium and the obtained cell suspension was smeared on a slide glass.
How the cell cycles of the cells recovered from the culture supernatant change by combination of the metaphase-synchronizing agent (2-MeOE2) and the shaking treatment was investigated with successively repeating the step of shaking treatment and the subsequent recovery 3 times. […] Thirty minutes later, shaking treatment was performed as in the first time and the second time, and the culture supernatant was centrifuged to recover the cells (third time recovered cells). The cells obtained using different concentrations of the metaphase-synchronizing agent and obtained in different times of recovery were respectively resuspended in a small amount of the medium and smear preparations were prepared. The smear preparations were air-dried, fixed, stained and observed.

bovine fibroblast cells [2] = assay: Collection of M phase cells: synchronization, shaking treatment and selection by size with 20 μm pipette (Example 1)
Text: As the bovine fibroblast cells (Japanese black), the cells from a fetal at Day 54 from conception were used. The recovered fetus was aseptically minced and digested with trypsin. The cell suspension was recovered and cultured in Dulbecco's modified eagle medium (D-MEM, Gibco BRL, Cat No. 11885-084, MD, USA), followed by storing frozen cells (one passage). For experiments, the frozen stored cells seeded on a 10 cm plastic petri dish (Falcon, 353003) were once subcultured, and the cells grown to logarithmic growth phase were used.
For synchronization to metaphase, 10% FBS-containing minimum essential medium (S-MEM, Cat. No.11385-036,Gibco BRL, MD, USA) supplemented with 2-methoxyestadiol (2-MeOE2, Cat No.M6383, Sigma chemical Co., MO, USA) to a concentration of 0.5 μM or 1 μM was used.
Each preparation was stained with Hoechst 33342 (Sigma Chemical Co, MO, USA) and observed with a fluorescence microscope. Only the cells having clear boundary of cell membrane were used for judgment. In Comparative Examples 1 and 2, the cells in prophase, metaphase, anaphase and telophase of cell cycle were classified into the cells in mitotic phase (M phase). The cells containing only one nucleus covered with a nuclear membrane were judged as the cells in interphase. The cells in which the nucleus in the cytoplasm is fragmented, the cells containing no nucleus in the cytoplasm, and the cells having a lot of nuclei in the cytoplasm were judged as abnormal cells. In Examples 1 and 2, M phase cells were further classified into normal metaphase cells (the one nucleus in metaphase is located in the cytoplasm) and abnormal metaphase cells (the two or more nuclei in metaphase are located in the cytoplasm). The cells in interphase were classified into normal interphase cells (only one nucleus having nuclear membrane exists in the cytoplasm) and abnormal interphase cells (two or more nuclei having nuclear membrane exist in the cytoplasm, or the nucleus in the cytoplasm is fragmented).
D-MEM medium in a petri dish containing cells in logarithmic growth phase was replaced with 5 ml of S-MEM medium containing 1.0 μM 2-MeOE2, and the culturing was continued. Thirty minutes later, the shaking treatment was carried out as in Comparative Example 1 and the culture supernatant was discarded. To the petri dish after discarding the culture supernatant, fresh S-MEM medium containing 1 μM 2-MeOE2 was added and the culture was continued for another 30 minutes. Thirty minutes later, the shaking treatment was carried out as described above and the culture supernatant was centrifuged (1000 rpm, 5 minutes) to recover the cells (second time recovered cells). An aliquot of the collected cells was transferred to D-MEM medium containing 1 μM 2-MeOE2, and substantially spherical cells having clear boundary of cell membrane and having a diameter slightly larger than 20 μm were selected within 30 minutes using a glass pipette (COOK, Cat.No.PBBP-2000) having an inner diameter of 20 μm. The selected cells were immediately transferred to phosphate buffered saline (D-PBS) containing Hoechst33342 and 1 μM 2-MeOE2, and cell cycles were determined under an inverted fluorescence microscope.

cells = details: nocodazole treatment, cells collected by the shaking method; cited from earlier work
[3] = 0.5 μM 2-MeOE2, first time recovered cells
[4] = 0.5 μM 2-MeOE2, first time recovered cells, of 2046 observed cells
[5] = 0.5 μM 2-MeOE2, second time recovered cells
[6] = 0.5 μM 2-MeOE2, second time recovered cells, of 2078 observed cells
[7] = 0.5 μM 2-MeOE2, third time recovered cells
[8] = 0.5 μM 2-MeOE2, third time recovered cells, of 2052 observed cells
[9] = 1 μM 2-MeOE2, first time recovered cells
[10] = 1 μM 2-MeOE2, first time recovered cells, of 2033 observed cells
[11] = 1 μM 2-MeOE2, second time recovered cells
[12] = 1 μM 2-MeOE2, second time recovered cells, of 2075 observed cells
[13] = 1 μM 2-MeOE2, third time recovered cells
[14] = 1 μM 2-MeOE2, third time recovered cells, of 2126 observed cells
[15] = 1 μM 2-MeOE2, second culture, shaking treatment, diameter not less than about 20 μm
[16] = 1 μM 2-MeOE2, second time recovered cells, 20 μm pipette, of 249 observed cells
[17] = 1 μM 2-MeOE2, second time recovered cells, selected with 20 μm pipette

With `COc1cc2c(cc1O)CC[C@@H]1[C@@H]2CC[C@]2(C)[C@@H](O)CC[C@@H]12` [2-MeOE2, 2-methoxyestradiol] the “Number of Metaphase Cells (mean ± SD(%))” value (bovine fibroblast cells [1]; 0.5 μM 2-MeOE2, 30 min, first time recovered cells, shaking treatment) was “(28.8 ± 3.0^a) %”, the “Number of Abnormal Cells (mean ± SD(%))” value (bovine fibroblast cells [1]; [3]) was “(15.4 ± 5.8^a) %” and the “Number of Normal Interphase Cells (mean ± SD(%))” value (bovine fibroblast cells [1]; [3]) was “(55.8 ± 3.6^a) %”. For the same compound, the “Number of Abnormal Cells” value (bovine fibroblast cells [1]; [4]) was 313, the “Number of Metaphase Cells” value (bovine fibroblast cells [1]; [4]) was 591 and the “Number of Normal Interphase Cells” value (bovine fibroblast cells [1]; [4]) was 1142. The “Number of Abnormal Cells (mean ± SD(%))” value (bovine fibroblast cells [1]; [5]) was “(6.6 ± 4.2^bc) %”, the “Number of Metaphase Cells (mean ± SD(%))” value (bovine fibroblast cells [1]; [5]) was “(45.2 ± 7.9^bc) %” and the “Number of Abnormal Cells” value (bovine fibroblast cells [1]; [6]) was 135. For the same compound, the “Number of Metaphase Cells” value (bovine fibroblast cells [1]; [6]) was 940, the “Number of Normal Interphase Cells” value (bovine fibroblast cells [1]; [6]) was 1003 and the “Number of Abnormal Cells (mean ± SD(%))” value (bovine fibroblast cells [1]; [7]) was “(6.4 ± 3.9^c) %”. The “Number of Metaphase Cells (mean ± SD(%))” value (bovine fibroblast cells [1]; [7]) was “(46.0 ± 7.5^c) %”, the “Number of Normal Interphase Cells (mean ± SD(%))” value (bovine fibroblast cells [1]; [7]) was “(47.6 ± 4.7^c) %” and the “Number of Abnormal Cells” value (bovine fibroblast cells [1]; [8]) was 130. For the same compound, the “Number of Metaphase Cells” value (bovine fibroblast cells [1]; [8]) was 945, the “Number of Normal Interphase Cells” value (bovine fibroblast cells [1]; [8]) was 977 and the “percentage of the M phase cells” value (bovine fibroblast cells [1]; 0.5 μM or 1.0 μM 2-MeOE2 with shaking treatment, first to third time recovered cells, shaking only 26.1%) was 28.8 to 81.2%. The “Number of Abnormal Cells (mean ± SD(%))” value (bovine fibroblast cells [1]; [9]) was “(11.4 ± 5.6^d) %”, the “Number of Metaphase Cells (mean ± SD(%))” value (bovine fibroblast cells [1]; [9]) was “(50.1 ± 8.6^d) %” and the “Number of Normal Interphase Cells (mean ± SD(%))” value (bovine fibroblast cells [1]; [9]) was “(38.5 ± 6.8^d) %”. For the same compound, the “Number of Abnormal Cells” value (bovine fibroblast cells [1]; [10]) was 232, the “Number of Metaphase Cells” value (bovine fibroblast cells [1]; [10]) was 1017 and the “Number of Normal Interphase Cells” value (bovine fibroblast cells [1]; [10]) was 784. The “Number of Abnormal Cells (mean ± SD(%))” value (bovine fibroblast cells [1]; [11]) was “(3.1 ± 1.5^ef) %”, the “Number of Metaphase Cells (mean ± SD(%))” value (bovine fibroblast cells [1]; [11]) was “(77.7 ± 5.4^e) %” and the “Number of Normal Interphase Cells (mean ± SD(%))” value (bovine fibroblast cells [1]; [11]) was “(19.2 ± 5.0^ef) %”. For the same compound, the “Number of Abnormal Cells” value (bovine fibroblast cells [1]; [12]) was 63, the “Number of Metaphase Cells” value (bovine fibroblast cells [1]; [12]) was 1614 and the “Number of Normal Interphase Cells” value (bovine fibroblast cells [1]; [12]) was 398. For the same compound, the “Number of Abnormal Cells (mean ± SD(%))” value (bovine fibroblast cells [1]; [13]) was “(3.2 ± 1.7^f) %”, the “Number of Metaphase Cells (mean ± SD(%))” value (bovine fibroblast cells [1]; [13]) was “(81.2 ± 5.0^f) %” and the “Number of Normal Interphase Cells (mean ± SD(%))” value (bovine fibroblast cells [1]; [13]) was “(15.6 ± 3.3^f) %”. The “Number of Abnormal Cells” value (bovine fibroblast cells [1]; [14]) was 68, the “Number of Metaphase Cells” value (bovine fibroblast cells [1]; [14]) was 1728 and the “Number of Normal Interphase Cells” value (bovine fibroblast cells [1]; [14]) was 330. For the same compound, the “M phase cells among the collected cells” value (bovine fibroblast cells [2]; [15]) was 99.1%, the “normal metaphase cells among the collected cells (243/246)” value (bovine fibroblast cells [2]; [15]) was 98.8% and the “Number of Abnormal Interphase Cells” value (bovine fibroblast cells [2]; [16]) was 0. The “Number of Abnormal Metaphase Cells” value (bovine fibroblast cells [2]; [16]) was 3, the “Number of Normal Interphase Cells” value (bovine fibroblast cells [2]; [16]) was 3 and the “Number of Normal Metaphase Cells” value (bovine fibroblast cells [2]; [16]) was 243. The “Number of Abnormal Interphase Cells (mean ± SD(%))” value (bovine fibroblast cells [2]; [17]) was “(0.0 ± 0.0) %”, the “Number of Abnormal Metaphase Cells (mean ± SD(%))” value (bovine fibroblast cells [2]; [17]) was “(1.3 ± 2.5) %” and the “Number of Normal Interphase Cells (mean ± SD(%))” value (bovine fibroblast cells [2]; [17]) was “(1.0 ± 1.1) %”. The “Number of Normal Metaphase Cells (mean ± SD(%))” value (bovine fibroblast cells [2]; [17]) was “(97.8% ± 2.1)”.

For `COC(=O)Nc1nc2ccc(C(=O)c3cccs3)cc2[nH]1` [nocodazole], the “cells in the metaphase obtained” value (cells) is given as 25 to 34%.
